# Article PMC4890880 (ACS infectious diseases, 2016)
# Where two headings read alike, the source gives them in different places.
# Experiments:
# [1] = test system: Plasmodium berghei (Pb-Luc) exoerythrocytic-stage parasites; details: for normalised signal at concentration 10 (first series): concentration 10, first series of dose columns; for normalised signal at concentration 10 (second series): concentration 10, second series of dose columns; for IC50: read-out: PbLuc_IC50
# [2] = test system: HepG2-A16-CD81EGFP cells; details: for IC50: read-out: Tox_IC50, HepG2 cytotoxicity
# [3] = sheet "2nd round", Broad compounds, dose response top concentration 10
# [4] = first series, fraction of control
# [5] = second series, fraction of control
# [6] = sheet 2nd round, maximal inhibition in dose response
# [7] = 2nd round, maximal inhibition in dose series
structure (smiles),measurement,setting,value
C[C@@H]1CCCCO[C@@H](CN(C)S(=O)(=O)c2ccc(F)cc2)[C@H](C)CN([C@@H](C)CO)C(=O)c2cc(N(C)C)ccc2O1 [BRD-K44445002-001-01-6],normalised signal at concentration 0.000508053 (first series),[1],0.8297
same,normalised signal at concentration 0.000508053 (second series),[1],0.9522
same,normalised signal at concentration 0.00152416 (first series),[1],0.9815
same,normalised signal at concentration 0.00152416 (second series),[1],1.174
same,normalised signal at concentration 0.00457247 (first series),[1],0.6933
same,normalised signal at concentration 0.00457247 (second series),[1],0.8769
same,normalised signal at concentration 0.0137174 (first series),[1],0.8541
same,normalised signal at concentration 0.0137174 (second series),[1],1.037
same,normalised signal at concentration 0.0411523 (first series),[1],1.012
same,normalised signal at concentration 0.0411523 (second series),[1],1.038
same,normalised signal at concentration 0.123457 (first series),[1],1.095
same,normalised signal at concentration 0.123457 (second series),[1],0.8137
same,normalised signal at concentration 0.37037 (first series),[1],0.8834
same,normalised signal at concentration 0.37037 (second series),[1],0.9753
same,normalised signal at concentration 1.11111 (first series),[1],1.034
same,normalised signal at concentration 1.11111 (second series),[1],0.8748
same,normalised signal at concentration 3.33333 (first series),[1],0.858
same,normalised signal at concentration 3.33333 (second series),[1],0.7361
same,normalised signal at concentration 10 (first series),[1],0.7308
same,normalised signal at concentration 10 (second series),[1],0.7674
same,IC50,[1]; [3],> 10 µM
same,PbLuc_max_inhibition (%),"[1]; sheet ""2nd round""",31%
same,IC50,"[2]; sheet ""2nd round""",> 10 µM
same,Tox_max_inhibition (%),"[2]; sheet ""2nd round""",2%
C[C@@H]1CCCCO[C@@H](CN(C)S(=O)(=O)c2ccc(F)cc2)[C@@H](C)CN([C@H](C)CO)C(=O)c2cc(N(C)C)ccc2O1 [BRD-K46014293-001-01-6],normalized signal at concentration 10,"[1]; first series of dose-response columns, fraction of control",1.08
same,normalized signal at concentration 0.000508053,[1]; [4],0.75
same,normalized signal at concentration 0.00152416,[1]; [4],0.85
same,normalized signal at concentration 0.00457247,[1]; [4],0.95
same,normalized signal at concentration 0.0137174,[1]; [4],0.77
same,normalized signal at concentration 0.0411523,[1]; [4],0.97
same,normalized signal at concentration 0.123457,[1]; [4],1.05
same,normalized signal at concentration 0.37037,[1]; [4],1.10
same,normalized signal at concentration 1.11111,[1]; [4],1.01
same,normalized signal at concentration 3.33333,[1]; [4],0.87
same,IC50,"[1]; sheet 2nd round, Broad compounds, dose response",> 10 µM
same,normalized signal at concentration 10,"[1]; second series of dose-response columns, fraction of control",0.93
same,normalized signal at concentration 0.000508053,[1]; [5],1.07
same,normalized signal at concentration 0.00152416,[1]; [5],0.98
same,normalized signal at concentration 0.00457247,[1]; [5],0.95
same,normalized signal at concentration 0.0137174,[1]; [5],0.98
same,normalized signal at concentration 0.0411523,[1]; [5],0.94
same,normalized signal at concentration 0.123457,[1]; [5],1.10
same,normalized signal at concentration 0.37037,[1]; [5],1.03
same,normalized signal at concentration 1.11111,[1]; [5],0.83
same,normalized signal at concentration 3.33333,[1]; [5],0.91
same,PbLuc_max_inhibition (%),[1]; [6],25%
same,IC50,[2]; sheet 2nd round,> 10 µM
same,Tox_max_inhibition (%),[2]; [6],15%
COc1cccc(NC(=O)N[C@@H]2CC[C@H](CC(=O)N3CCN(C)CC3)O[C@@H]2CO)c1 [BRD-K48690594-001-01-7],normalised signal at concentration 0.000508053 (first series),[1],0.9068
same,normalised signal at concentration 0.000508053 (second series),[1],0.9275
same,normalised signal at concentration 0.00152416 (first series),[1],1.012
same,normalised signal at concentration 0.00152416 (second series),[1],1.043
same,normalised signal at concentration 0.00457247 (first series),[1],1.046
same,normalised signal at concentration 0.00457247 (second series),[1],0.8968
same,normalised signal at concentration 0.0137174 (first series),[1],1.108
same,normalised signal at concentration 0.0137174 (second series),[1],0.8364
same,normalised signal at concentration 0.0411523 (first series),[1],0.955
same,normalised signal at concentration 0.0411523 (second series),[1],1.013
same,normalised signal at concentration 0.123457 (first series),[1],0.854
same,normalised signal at concentration 0.123457 (second series),[1],0.8546
same,normalised signal at concentration 0.37037 (first series),[1],1.036
same,normalised signal at concentration 0.37037 (second series),[1],0.9102
same,normalised signal at concentration 1.11111 (first series),[1],1.0718
same,normalised signal at concentration 1.11111 (second series),[1],0.9366
same,normalised signal at concentration 3.33333 (first series),[1],0.8922
same,normalised signal at concentration 3.33333 (second series),[1],0.9328
same,normalised signal at concentration 10 (first series),[1],0.9136
same,normalised signal at concentration 10 (second series),[1],0.9502
same,IC50,[1]; [3],> 10 µM
same,PbLuc_max_inhibition (%),"[1]; sheet ""2nd round""",16%
same,IC50,"[2]; sheet ""2nd round""",> 10 µM
same,Tox_max_inhibition (%),"[2]; sheet ""2nd round""",14%
N#C[C@@H]1[C@H](c2ccccc2C2=CCCC2)[C@H](CO)N1C(=O)C1CCOCC1 [BRD-K53180201-001-01-6],PbLuc_max_inhibition (%),[1]; [7],21%
same,normalized signal at 0.000508053 (first series),"[1]; concentration 0.000508053, first replicate series, fraction of control",1.0312
same,normalized signal at 0.000508053 (second series),"[1]; concentration 0.000508053, second replicate series, fraction of control",0.7931
same,normalized signal at 0.00152416 (first series),"[1]; concentration 0.00152416, first replicate series, fraction of control",1.021
same,normalized signal at 0.00152416 (second series),"[1]; concentration 0.00152416, second replicate series, fraction of control",0.9501
same,normalized signal at 0.00457247 (first series),"[1]; concentration 0.00457247, first replicate series, fraction of control",0.8781
same,normalized signal at 0.00457247 (second series),"[1]; concentration 0.00457247, second replicate series, fraction of control",0.9105
same,normalized signal at 0.0137174 (first series),"[1]; concentration 0.0137174, first replicate series, fraction of control",0.9372
same,normalized signal at 0.0137174 (second series),"[1]; concentration 0.0137174, second replicate series, fraction of control",0.8749
same,normalized signal at 0.0411523 (first series),"[1]; concentration 0.0411523, first replicate series, fraction of control",0.9703
same,normalized signal at 0.0411523 (second series),"[1]; concentration 0.0411523, second replicate series, fraction of control",1.2503
same,normalized signal at 0.123457 (first series),"[1]; concentration 0.123457, first replicate series, fraction of control",0.9995
same,normalized signal at 0.123457 (second series),"[1]; concentration 0.123457, second replicate series, fraction of control",1.034
same,normalized signal at 0.37037 (first series),"[1]; concentration 0.37037, first replicate series, fraction of control",0.9827
same,normalized signal at 0.37037 (second series),"[1]; concentration 0.37037, second replicate series, fraction of control",0.991
same,normalized signal at 1.11111 (first series),"[1]; concentration 1.11111, first replicate series, fraction of control",1.008
same,normalized signal at 1.11111 (second series),"[1]; concentration 1.11111, second replicate series, fraction of control",0.8686
same,normalized signal at 3.33333 (first series),"[1]; concentration 3.33333, first replicate series, fraction of control",0.9463
same,normalized signal at 3.33333 (second series),"[1]; concentration 3.33333, second replicate series, fraction of control",0.9769
same,normalized signal at 10 (first series),"[1]; concentration 10, first replicate series, fraction of control",1.181
same,normalized signal at 10 (second series),"[1]; concentration 10, second replicate series, fraction of control",1.122
same,IC50,"[1]; 2nd round, Broad DOS compounds, unit not printed (dose series head 10 to 0.000508053)",> 10 µM
same,Tox_max_inhibition (%),[2]; [7],7%
same,IC50,"[2]; 2nd round, unit inferred",> 10 µM
